From US9902696B2, “1,4-substituted piperidine derivatives” (Cephalon, Inc., priority 2015, dated 2018)
Where a name gives a salt, the structure may show the parent alone.

Target: T1, recombinant human baculovirus-expressed GST-tagged FASN (Homo sapiens, UniProt P49327)
T1 construct: GST
Test: FASN enzyme activity assay, fluorescence-based detection of CoA with CPM
Format: biochemical
Conditions: 5 nM FASN, 150 μM NADPH, 10 μM acetyl-CoA, 25 μM malonyl-CoA, 90 minutes incubation; read-out: IC50 data for Additional Compounds of Formulae I-V(a): Activity
Method in brief: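 Human GST-tagged FASN, baculovirus-expressed (5 nM), in 50 mM HEPES pH 7.5 with 150 μM NADPH, 10 μM acetyl-CoA, 25 μM malonyl-CoA, 0.5% DMSO; malonyl-CoA-started, 90 min. Released CoA detected with CPM (50 μM dilution), 30 min, fluorescence ex 390/em 530. IC50 from variable-slope sigmoidal fit of % inhibition versus log concentration.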

T1 sequence (P49327 whole entry): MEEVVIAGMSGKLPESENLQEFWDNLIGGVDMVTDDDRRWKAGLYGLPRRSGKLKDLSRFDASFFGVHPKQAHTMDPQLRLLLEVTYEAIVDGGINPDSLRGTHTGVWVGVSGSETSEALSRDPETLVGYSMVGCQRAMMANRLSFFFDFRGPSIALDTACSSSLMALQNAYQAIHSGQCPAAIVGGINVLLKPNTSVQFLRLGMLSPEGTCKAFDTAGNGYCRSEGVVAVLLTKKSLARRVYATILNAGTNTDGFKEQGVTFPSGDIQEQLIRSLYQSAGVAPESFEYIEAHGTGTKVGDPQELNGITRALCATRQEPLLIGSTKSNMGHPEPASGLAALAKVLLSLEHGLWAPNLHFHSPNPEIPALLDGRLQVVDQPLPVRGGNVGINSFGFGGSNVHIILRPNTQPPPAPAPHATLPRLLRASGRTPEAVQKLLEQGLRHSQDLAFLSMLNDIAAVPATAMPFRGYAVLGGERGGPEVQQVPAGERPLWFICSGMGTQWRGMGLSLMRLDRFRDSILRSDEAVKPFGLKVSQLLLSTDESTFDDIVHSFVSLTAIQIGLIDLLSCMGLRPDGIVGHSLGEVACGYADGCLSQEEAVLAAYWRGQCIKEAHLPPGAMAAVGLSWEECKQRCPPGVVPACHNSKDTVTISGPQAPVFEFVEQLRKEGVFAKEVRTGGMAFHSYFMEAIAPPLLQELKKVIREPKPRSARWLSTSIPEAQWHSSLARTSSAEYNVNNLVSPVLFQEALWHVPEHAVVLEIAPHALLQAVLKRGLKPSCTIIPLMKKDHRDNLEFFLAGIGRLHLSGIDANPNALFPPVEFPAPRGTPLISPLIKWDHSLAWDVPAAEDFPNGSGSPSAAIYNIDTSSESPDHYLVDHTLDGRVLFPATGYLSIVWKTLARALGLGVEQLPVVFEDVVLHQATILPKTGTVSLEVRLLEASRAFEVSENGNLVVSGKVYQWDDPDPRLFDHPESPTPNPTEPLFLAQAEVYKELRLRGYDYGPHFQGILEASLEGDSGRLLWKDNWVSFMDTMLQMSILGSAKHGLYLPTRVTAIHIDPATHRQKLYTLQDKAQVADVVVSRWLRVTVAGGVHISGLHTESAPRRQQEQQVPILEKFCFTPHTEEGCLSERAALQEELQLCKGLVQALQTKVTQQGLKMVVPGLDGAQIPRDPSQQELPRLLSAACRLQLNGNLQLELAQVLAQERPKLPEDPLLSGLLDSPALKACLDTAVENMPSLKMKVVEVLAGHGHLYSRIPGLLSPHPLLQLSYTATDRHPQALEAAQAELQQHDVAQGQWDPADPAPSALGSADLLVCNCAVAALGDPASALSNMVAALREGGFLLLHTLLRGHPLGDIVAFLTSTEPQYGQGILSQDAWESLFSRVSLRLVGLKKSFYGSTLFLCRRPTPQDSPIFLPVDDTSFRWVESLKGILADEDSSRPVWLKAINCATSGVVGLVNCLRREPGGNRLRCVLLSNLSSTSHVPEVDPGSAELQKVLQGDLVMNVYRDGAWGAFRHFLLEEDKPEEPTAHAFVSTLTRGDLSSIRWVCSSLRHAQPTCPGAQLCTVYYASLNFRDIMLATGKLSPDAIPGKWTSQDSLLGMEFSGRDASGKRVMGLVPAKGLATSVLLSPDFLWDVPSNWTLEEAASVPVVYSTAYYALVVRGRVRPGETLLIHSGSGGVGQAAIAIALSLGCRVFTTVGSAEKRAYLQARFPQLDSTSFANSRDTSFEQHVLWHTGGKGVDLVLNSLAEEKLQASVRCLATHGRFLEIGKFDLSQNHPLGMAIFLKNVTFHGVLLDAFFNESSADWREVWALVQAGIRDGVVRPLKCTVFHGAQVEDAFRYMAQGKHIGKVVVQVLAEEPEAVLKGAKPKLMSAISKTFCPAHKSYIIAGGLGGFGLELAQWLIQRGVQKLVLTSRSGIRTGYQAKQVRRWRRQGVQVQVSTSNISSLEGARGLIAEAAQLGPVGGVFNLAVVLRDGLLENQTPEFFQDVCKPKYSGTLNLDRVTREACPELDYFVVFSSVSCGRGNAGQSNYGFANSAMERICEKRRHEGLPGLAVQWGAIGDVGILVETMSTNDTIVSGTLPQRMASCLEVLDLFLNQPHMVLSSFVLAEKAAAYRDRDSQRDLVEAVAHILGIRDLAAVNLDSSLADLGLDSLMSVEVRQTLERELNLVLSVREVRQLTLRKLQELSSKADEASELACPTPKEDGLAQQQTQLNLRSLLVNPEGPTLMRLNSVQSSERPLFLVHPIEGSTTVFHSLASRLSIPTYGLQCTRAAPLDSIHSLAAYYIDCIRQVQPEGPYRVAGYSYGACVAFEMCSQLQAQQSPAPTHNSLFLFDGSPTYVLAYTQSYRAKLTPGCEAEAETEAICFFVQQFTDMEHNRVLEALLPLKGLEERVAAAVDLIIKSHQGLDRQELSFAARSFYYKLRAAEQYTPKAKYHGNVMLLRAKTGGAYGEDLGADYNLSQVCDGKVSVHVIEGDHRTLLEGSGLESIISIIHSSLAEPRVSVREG

IC50 [nM]	SMILES
1000 to 10000	Cc1c(-c2ccc(OC3CCN(C(=O)[C@@H](C)N)CC3)cc2)ccc2cccnc12 [Example 610, (2R)-2-Amino-1-[4-[4-(8-methyl-7-quinolyl)phenoxy]-1-piperidyl]propan-1-one, 2HCl]
1000 to 10000	Cc1c(-c2ccc(OC3CCN(C(=O)OC4CCCOC4)CC3)cc2)ccc2cccnc12 (centres unmarked) [Example 557, Tetrahydropyran-3-yl 4-[4-(8-methyl-7-quinolyl)phenoxy]piperidine-1-carboxylate]
1000 to 10000	Cc1c(-c2ccc(OC3CCN(C(=O)[C@H]4CCCN4C)CC3)cc2)ccc2cccnc12 [Example 616, [(2R)-1-Methylpyrrolidin-2-yl]-[4-[4-(8-methyl-7-quinolyl)phenoxy]-1-piperidyl]methanone]
1000 to 10000	Cc1c(-c2ccc(OC3CCN(C(=O)NC4CCOCC4)CC3)cc2)ccc2cccnc12 [Example 549, 4-[4-(8-Methyl-7-quinolyl)phenoxy]-N-tetrahydropyran-4-yl-piperidine-1-carboxamide, HCl]

Continued, molecule first:

SMILES	IC50 [nM]
Cc1c(-c2ccc(OC3CCN(C(=O)NCC(C)C)CC3)cc2)ccn2ccnc12 [Example 632, N-Isobutyl-4-[4-(8-methylimidazo[1,2-a]pyridin-7-yl)phenoxy]piperidine-1-carboxamide]	1 to 99
Cc1c(-c2ccc(OC3CCN(C(=O)OC4CCOCC4)CC3)cc2)ccc2cccnc12 [Example 556, Tetrahydropyran-4-yl 4-[4-(8-methyl-7-quinolyl)phenoxy]piperidine-1-carboxylate]	1000 to 10000
Cc1c(-c2ccc(OC3CCN(C(=O)OCCN4CCOCC4)CC3)cc2)ccc2cccnc12 [Example 546, 2-Morpholinoethyl 4-[4-(8-methyl-7-quinolyl)phenoxy]piperidine-1-carboxylate 2HCl]	1000 to 10000

Same assay, conditions: 5 nM FASN, 150 μM NADPH, 10 μM acetyl-CoA, 25 μM malonyl-CoA, 90 minutes incubation; read-out: IC50 data for Compounds of Formulae I-V/V(a): Activity

IC50 [nM]	SMILES
100 to 999	CCC(=O)N1CCC(Oc2ccc(-c3ccc4cccnc4c3C)cc2)CC1C (mixture of isomers) [Example 363, 1-{2-Methyl-4-[4-(8-methylquinolin-7-yl)-phenoxy]-piperidin-1-yl}-propan-1-one, HCl]
100 to 999	CNc1c(-c2ccc(OC3CCN(C(=O)[C@H]4CCCO4)CC3)cc2)cnc2ccccc12 [Example 236, {4-[4-(4-Methylaminoquinolin-3-yl)-phenoxy]-piperidin-1-yl}-(R)-tetrahydrofuran-2-yl-methanone]
1000 to 10000	Cc1c(-c2ccc(OC3CCN(C(=O)C4(C#N)CC4)CC3)cc2)ccc2cccnc12 [Example 319, 1-{4-[4-(8-Methylquinolin-7-yl)-phenoxy]-piperidine-1-carbonyl}-cyclopropanecarbonitrile]
1000 to 10000	Cc1c(-c2ccc(OC3CCN(C(=O)C(F)(F)F)CC3)cc2)ccc2cccnc12 [Example 357, 2,2,2-Trifluoro-1-{4-[4-(8-methyl-quinolin-7-yl)-phenoxy]-piperidin-1-yl}-ethanone]
100 to 999	COc1cc2cc(-c3ccc(OC4CCN(C(=O)C5CCC5)CC4)cc3)ccc2cn1 [Example 417, Cyclobutyl-{4-[4-(3-methoxyisoquinolin-6-yl)-phenoxy]-piperidin-1-yl}-methanone]
1 to 99	O=C(N1CCC(Oc2ccc(-c3cc4ccccc4cn3)cc2)CC1)N1CCCO1 [Example 74, [4-(4-Isoquinolin-3-yl-phenoxy)-piperidin-1-yl]-isoxazolidin-2-yl-methanone]
1000 to 10000	CCC(=O)N1CCC(Oc2ccc(-c3ccc(Cl)c(Cl)c3)cc2)CC1 [Example 500, 1-[4-(3′,4′-Dichlorobiphenyl-4-yloxy)-piperidin-1-yl]-propan-1-one]
1 to 99	CNC(=O)N1CCC(Oc2ccc(-c3ccc4cccnc4c3C)cc2)CC1 [Example 95, N-methyl-4-[4-(8-methyl-7-quinolyl)phenoxy]piperidine-1-carboxamide]
100 to 999	Cc1c(-c2ccc(O[C@@H]3C[C@H]4CC[C@@H](C3)N4C(=O)[C@H]3CCCO3)cc2)ccc2cccnc12 [Example 360, {exo-3-[4-(8-Methylquinolin-7-yl)-phenoxy]-8-aza-bicyclo[3.2.1]oct-8-yl}-(R)-tetrahydrofuran-2-yl-methanone, HCl]
1 to 99	O=C([C@@H]1CCCO1)N1CCC(Oc2ccc(-c3cnc4ccccc4c3)cc2)CC1 [Example 104, [4-(4-Quinolin-3-yl-phenoxy)-piperidin-1-yl]-(S)-tetrahydrofuran-2-yl-methanone, HCl]
1000 to 10000	CO[C@@H](C)C(=O)N1CCC(Oc2ccc(-c3cnc4ccccc4c3)cc2)CC1 [Example 109, (S)-2-Methoxy-1-[4-(4-quinolin-3-yl-phenoxy)-piperidin-1-yl]-propan-1-one, 2HCl]
1 to 99	O=C(C1CC1)N1CCC(Oc2ccc(-c3cnc4ccccc4c3)c(F)c2)CC1 [Example 202, Cyclopropyl-[4-(3-fluoro-4-quinolin-3-yl-phenoxy)-piperidin-1-yl]-methanone]
1000 to 10000	O=C(N1CCC(Oc2ccc(-c3ccn4cnnc4c3)cc2)CC1)C1(O)CC1 [Example 306, (1-Hydroxycyclopropyl)-[4-(4-[1,2,4]triazolo[4,3-a]pyridin-7-yl-phenoxy)-piperidin-1-yl]-methanone]
1 to 99	Cc1c(-c2ccc(OC3CCN(C(=O)[C@H]4CCCO4)C(C)C3)cc2)ccc2cccnc12 (mixture of isomers) [Example 362, {2-Methyl-4-[4-(8-methylquinolin-7-yl)-phenoxy]-piperidin-1-yl}-(R)-tetrahydrofuran-2-yl-methanone, HCl]
100 to 999	CCC(=O)N1CCC(Oc2ccc(-c3ccc4scnc4c3)cc2)CC1 [Example 269, 1-[4-(4-Benzothiazol-5-yl-phenoxy)-piperidin-1-yl]-propan-1-one; TFA salt]

Continued, molecule first:

SMILES	IC50 [nM]
Cc1cc(-c2cnc3ccccc3c2)ccc1OC1CCN(C(=O)C2CC2)CC1 [Example 214, Cyclopropyl-[4-(2-methyl-4-quinolin-3-yl-phenoxy)-piperidin-1-yl]-methanone]	1000 to 10000
Cc1c(-c2ccc(OC3CCN(C(=O)[C@H]4CCCO4)CC3)cc2)cnc2ccccc12 [Example 65, {4-[4-(4-Methylquinolin-3-yl)-phenoxy]-piperidin-1-yl}-(R)-tetrahydro-furan-2-yl-methanone]	1 to 99
Cc1c(-c2ccc(O[C@@H]3CCN(C(=O)C4CC4)C[C@H]3F)cc2)ccc2cccnc12 (relative stereo) [Example 374, Cyclopropyl-{trans-3-fluoro-4-[4-(8-methylquinolin-7-yl)-phenoxy]-piperidin-1-yl}-methanone, HCl]	100 to 999
CNc1nccc2cc(-c3ccc(OC4CCN(C(=O)[C@H]5CCCO5)CC4)cc3)ccc12 [Example 456, {4-[4-(1-Methylaminoisoquinolin-6-yl)-phenoxy]-piperidin-1-yl}-(R)-tetrahydrofuran-2-yl-methanone]	1 to 99
Cc1cncc2cc(-c3ccc(OC4CCN(C(=O)[C@H]5CCCO5)CC4)cc3)ccc12 [Example 459, {4-[4-(4-Methylisoquinolin-6-yl)-phenoxy]-piperidin-1-yl}-(R)-tetrahydrofuran-2-yl-methanone, HCl]	1 to 99
CCC(=O)N1CCC(Oc2ccc(-c3ccc(OCc4ccccc4)cc3F)cc2)CC1 [Example 504, 1-[4-(4′-Benzyloxy-2′-fluoro-biphenyl-4-yloxy)-piperidin-1-yl]-propan-1-one]	1000 to 10000
CCNC(=O)N1CCC(Oc2ccc(-c3ccc4cccnc4c3OC)cc2)CC1 [Example 86, 4-[4-(8-Methoxyquinolin-7-yl)-phenoxy]-piperidine-1-carboxylic acid ethylamide]	1 to 99
CC(C)(C)OC(=O)N1CCC(Oc2ccc(-c3ccc(C#N)cc3)cc2)CC1 [Example 490, 4-(4′-Cyano-biphenyl-4-yloxy)-piperidine-1-carboxylic acid t-butyl ester]	1000 to 10000
CC(C)C(=O)N1CCC(Oc2ccc(-c3ccc4ccccc4c3)cc2)CC1 [Example 11, 2-Methyl-1-[4-(4-naphthalen-2-yl-phenoxy)-piperidin-1-yl]-propan-1-one]	1000 to 10000
Cc1c(-c2ccc(OC3CCN(C(=O)C4CC4)CC3)c(F)c2)cnc2ccccc12 [Example 229, Cyclopropyl-{4-[2-fluoro-4-(4-methylquinolin-3-yl)-phenoxy]-piperidin-1-yl}-methanone]	100 to 999
CCC(=O)N1CC[C@H](Oc2ccc(-c3cnc4ccccc4c3)cc2)C1 [Example 343, (S)-1-(3-(4-(Quinolin-3-yl)phenoxy)pyrrolidin-1-yl)propan-1-one, HCl]	1000 to 10000
O=C(C1CCCCO1)N1CCC(Oc2ccc(-c3cnc4ccccc4c3)cc2)CC1 (centres unmarked) [Example 106, [4-(4-Quinolin-3-yl-phenoxy)-piperidin-1-yl]-(tetrahydropyran-2-yl)-methanone, 2HCl]	100 to 999
O=C(C1CC1)N1CCC(Oc2ccc(-c3cccc(-c4ccccn4)c3F)cc2)CC1 [Example 396, Cyclopropyl-[4-(2′-fluoro-3′-pyridin-2-yl-biphenyl-4-yloxy)-piperidin-1-yl]-methanone]	1000 to 10000
Cc1c(-c2ccc(OC3CCN(C(=O)NO)CC3)cc2)cnc2ccccc12 [Example 87, 4-[4-(4-Methylquinolin-3-yl)-phenoxy]-piperidine-1-carboxylic acid hydroxyamide]	1000 to 10000
Cc1c(-c2ccc(OC3CCN(C(=O)C4CC4)CC3)cc2)cccc1-c1ccccn1 [Example 407, Cyclopropyl-[4-(2′-methyl-3′-pyridin-2-yl-biphenyl-4-yloxy)-piperidin-1-yl]-methanone, TFA salt]	1000 to 10000
O=C(C1CC1)N1CCC(Oc2ccc(-c3ccc(OCc4ccccc4)cc3F)cc2)CC1 [Example 505, [4-(4′-Benzyloxy-2′-fluorobiphenyl-4-yloxy)-piperidin-1-yl]-cyclopropyl-methanone]	1000 to 10000
